Assay [1] has as its target T1, full-length SHP2 (Homo sapiens, UniProt Q06124).
T1 construct: 1 nM full-length SHP2 (His6-tagged SHP2(2-527), recombinantly expressed in E. coli and purified in-house); His6; made in house; host or cells: E. coli
T1 sequence (Q06124 2-527): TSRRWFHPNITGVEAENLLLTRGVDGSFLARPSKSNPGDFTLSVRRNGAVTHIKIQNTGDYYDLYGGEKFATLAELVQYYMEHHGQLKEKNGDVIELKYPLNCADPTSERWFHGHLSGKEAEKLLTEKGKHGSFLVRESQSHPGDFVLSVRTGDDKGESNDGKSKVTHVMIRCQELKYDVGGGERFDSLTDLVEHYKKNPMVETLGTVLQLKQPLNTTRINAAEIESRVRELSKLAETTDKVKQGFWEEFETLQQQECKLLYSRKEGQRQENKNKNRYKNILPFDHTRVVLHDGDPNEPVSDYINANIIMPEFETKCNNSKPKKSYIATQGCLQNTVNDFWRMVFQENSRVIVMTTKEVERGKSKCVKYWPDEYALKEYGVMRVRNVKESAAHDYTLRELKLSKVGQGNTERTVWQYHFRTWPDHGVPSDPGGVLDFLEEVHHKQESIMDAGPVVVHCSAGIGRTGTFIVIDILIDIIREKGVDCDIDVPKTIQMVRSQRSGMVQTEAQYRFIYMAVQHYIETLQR
As to the kind of experiment: SHP2 enzymatic assay (fluorescence intensity kinetic assay, DiFMUP hydrolysis). The assay is classed as biochemical. Conditions: 1 nM His6-tagged SHP2(2-527), 1 μM activating peptide, 50 μM DiFMUP; single assay or mean of multiple assays; read-out: Biological Example 1 IC50. How it is done:
A fluorescence intensity kinetic assay was configured for full-length SHP2 that monitors the amount of 6,8-difluoro-7-hydroxy-4-methylcoumarin (“DiFMU”) formed upon hydrolysis of 6,8-difluoro-4-methylumbelliferyl phosphate (“DiFMUP”) by SHP2. […] Low control wells lacked enzyme. The assays were initiated by the addition of a mixture of SHP2 and the activating peptide, and following a 15 second mix on an orbital shaker, were read in kinetic mode for 15 minutes (30 seconds/cycle) at ambient temperature on a PerkinElmer EnVision microplate reader (kEx=355 nm, kEm=460 nm). Initial velocities (slopes of the tangents at t=0) were estimated from exponential fits to the slightly nonlinear progress curves and then were converted to percent of control (“POC”) using the following equation:
[formula] • Where: xmax Average Uninhibited Controls • Xmin Average Background A 4-parameter logistic model was the fit to the POC data for each compound. From that fit, the IC50 was estimated and is defined as the concentration of compound at which the curve crosses 50 POC.

For assay [2], the system named is ERK1/2 (Thr202/Tyr204) phosphorylation in KYSE520 cells. The experiment in a line: Cellular Phospho-p44/42 MAPK (Erk1/2) (Thr202/Tyr204) assay, In-Cell Western. The assay is classed as cell-based. The following applies: Homo sapiens, KYSE-520; KYSE520 cells, 1 hour incubation, pERK signal normalized to GAPDH; single assay or mean of multiple assays; read-out: Biological Example 2 IC50. How it is done:
Inhibition of ERK1/2 (Thr202/Tyr204) phosphorylation was determined by the following cellular assay, which comprises incubating cells with a compound for 1 hour and quantifying pERK signal by In-Cell Western on fixed cells and normalizing to GAPDH signal. KYSE520 cells were obtained from DSMZ and grown in RPMI supplemented with 10% fetal bovine serum, penicillin/streptomycin, 2 mM L-alanyl-L-glutamine dipeptide in 0.85% NaCl (Glutamax™), non-essential amino acids, and sodium pyruvate. Cells were plated in 96-well plates at 30,000 cells/well and allowed to attach overnight at 37° C./5% CO2. Cells were treated with compounds prepared as a 10-point, 1:3 dilution series (range: 20 μM-1 nM), with a final DMSO concentration of 0.5%. After 1 hour incubation, cells were fixed in 3.7% formaldehyde in Dulbecco's phosphate-buffered saline (“dPBS”) at room temperature for 20 minutes. Cells were then washed with dPBS and permeabilized in 100% MeOH at room temperature for 10 minutes. Following permeabilization, cells were washed in dPBS and incubated in LI-COR Blocking Buffer (LI-COR Biosciences, Cat #927-40000) for 1 hour or longer. Plates were then incubated with an antibody specific for the MEK-dependent ERK1/2 phosphorylation sites, threonine 202 and tyrosine 204 (Cell Signaling Technologies; Cat #9101), downstream of SHP2 in the MAP kinase signal transduction pathway, as well as GAPDH (Millipore; Cat #MAB374). pErk1/2 (Thr202/Tyr204) antibody was diluted in LI-COR blocking buffer containing 0.05% polysorbate-20 (Tween-20) at 1:250; GAPDH was diluted at 1:2,500. The plates were incubated overnight at 4° C. After washing with PBS/0.05% Tween-20, the cells were incubated with fluorescently-labeled secondary antibodies (Anti-rabbit-Alexa Flour680, Invitrogen Cat #A21109; Anti-mouse-IRDye800CW, Li-cor Bioscieces Cat #926-32210, both at 1:1000 dilution) for 1 hour. Cells were then washed, as above, and analyzed for fluorescence at both 680 nm and 800 nm wavelengths using the Aerius Infrared Imaging System (LI-COR Biosciences, Model 9250). Phosphorylated Erk1/2 ([…]) signal was normalized to GAPDH signal for each well. IC50 values were calculated from the normalized values using a 4-parameter fit in BioAssay software. The reported IC50 in Table 2 may be from a single assay or the mean of multiple assays.

As usually defined, the IC50 is the concentration that inhibits the measured activity by half.

Each structure is given as a SMILES string.

Consider `N[C@@H]1c2ccccc2CC12CCN(c1ncc(Sc3ccnc4[nH]ccc34)nn1)CC2` [Example 30, (S)-1′-(6-((1H-pyrrolo[2,3-b]pyridin-4-yl)thio)-1,2,4-triazin-3-yl)-1,3-dihydrospiro[indene-2,4′-piperidin]-1-amine], for which the IC50 in assay [1] was 0.022 µM; in assay [2], 0.002 µM.

With `N[C@@H]1c2ccccc2CC12CCN(c1ncc(-c3ccccc3Cl)nn1)CC2` [Example 31, (S)-1′-(6-(2-chlorophenyl)-1,2,4-triazin-3-yl)-1,3-dihydrospiro[indene-2,4′-piperidin]-1-amine], the 50% inhibitory concentration (IC50) in assay [1] is 0.023 µM; in assay [2] it was 0.424 µM.

Take `N[C@@H]1c2ccccc2CC12CCN(c1ncc(Sc3ccccc3)nn1)CC2` [Example 32, (S)-1′-(6-(phenylthio)-1,2,4-triazin-3-yl)-1,3-dihydrospiro[indene-2,4′-piperidin]-1-amine]: the IC50 in assay [1] turned out to be 0.005 µM; in assay [2] it was 0.014 µM.

As to `N[C@@H]1c2ccccc2CC12CCN(c1ncc(Cc3ccccc3)nn1)CC2` [Example 33, (S)-1′-(6-benzyl-1,2,4-triazin-3-yl)-1,3-dihydrospiro[indene-2,4′-piperidin]-1-amine], the IC50 was found to be 0.098 µM in assay [1] and 0.366 µM in assay [2].

In the case of `Nc1c(Cl)c(Sc2cnc(N3CCC4(CC3)Cc3ccccc3[C@H]4N)nn2)cc[n+]1[O-]` [Example 34, (S)-2-amino-4-((3-(1-amino-1,3-dihydrospiro[indene-2,4′-piperidin]-1′-yl)-1,2,4-triazin-6-yl)thio)-3-chloropyridine 1-oxide], the IC50 turned out to be 0.079 µM in assay [1] and 0.009 µM in assay [2].

Turning to `Nc1nccc(Sc2cnc(N3CCC4(CC3)Cc3c(Cl)cccc3[C@H]4N)nn2)c1Cl` [Example 35, (S)-1′-(6-((2-amino-3-chloropyridin-4-yl)thio)-1,2,4-triazin-3-yl)-4-chloro-1,3-dihydrospiro[indene-2,4′-piperidin]-1-amine], the figures for the 50% inhibitory concentration (IC50) in assay [1] and in assay [2] were 0.026 µM and 0.009 µM, respectively.

Turning to `CC(C)(C#N)CNc1nccc(Sc2cnc(N3CCC4(CC3)Cc3ccccc3[C@H]4N)nn2)c1Cl` [Example 36, (S)-3-((4-((3-(1-amino-1,3-dihydrospiro[indene-2,4′-piperidin]-1′-yl)-1,2,4-triazin-6-yl)thio)-3-chloropyridin-2-yl)amino)-2,2-dimethylpropanenitrile], the IC50 in assay [1] stood at 0.11 µM; in assay [2], 0.017 µM.

With `N[C@@H]1c2ccccc2CC12CCN(c1ncc(Sc3cccc4c3CC4)nn1)CC2` [Example 37, (S)-1′-(6-(bicyclo[4.2.0]octa-1(6),2,4-trien-2-ylthio)-1,2,4-triazin-3-yl)-1,3-dihydrospiro[indene-2,4′-piperidin]-1-amine], the IC50 in assay [1] was found to be 0.011 µM; in assay [2], 0.031 µM.

With `N[C@@H]1c2cccnc2CC12CCN(c1ncc(Sc3cccc4c3CC4)nn1)CC2` [Example 38, (S)-1′-(6-(bicyclo[4.2.0]octa-1(6),2,4-trien-2-ylthio)-1,2,4-triazin-3-yl)-5,7-dihydrospiro[cyclopenta[b]pyridine-6,4′-piperidin]-5-amine], the values for the IC50 in assay [1] and in assay [2] were 0.013 µM and 0.041 µM, respectively.

`CNc1nccc(Sc2cnc(N3CCC4(CC3)Cc3ncccc3[C@H]4N)nn2)c1Cl` [Example 39, (S)-1′-(6-((3-chloro-2-(methylamino)pyridin-4-yl)thio)-1,2,4-triazin-3-yl)-5,7-dihydrospiro[cyclopenta[b]pyridine-6,4′-piperidin]-5-amine]: the values for the IC50 in assay [1] and in assay [2] were 0.078 µM and 0.011 µM, respectively.

As to `Cc1ccc2c(c1)[C@@H](N)C1(CCN(c3ncc(Sc4ccnc(N)c4Cl)nn3)CC1)C2` [Example 45, (S)-1′-(6-((2-amino-3-chloropyridin-4-yl)thio)-1,2,4-triazin-3-yl)-6-methyl-1,3-dihydrospiro[indene-2,4′-piperidin]-1-amine], the IC50 in assay [1] amounted to 0.014 µM; in assay [2], 0.002 µM.

For the compound `Nc1nccc(Sc2cnc(N3CCC4(CC3)Cc3cc(Cl)ccc3[C@@H]4N)nn2)c1Cl` [Example 46, (R)-1′-(6-((2-amino-3-chloropyridin-4-yl)thio)-1,2,4-triazin-3-yl)-5-chloro-1,3-dihydrospiro[indene-2,4′-piperidin]-1-amine], the IC50 in assay [1] was 0.091 µM; in assay [2], 0.43 µM.

As to `Cc1ccc2c(c1)[C@H](N)C1(CCN(c3ncc(Sc4ccnc(N)c4Cl)nn3)CC1)C2` [Example 47, (R)-1′-(6-((2-amino-3-chloropyridin-4-yl)thio)-1,2,4-triazin-3-yl)-6-methyl-1,3-dihydrospiro[indene-2,4′-piperidin]-1-amine], the results for the half-inhibitory concentration (IC50) in assay [1] and in assay [2] were 0.038 µM and 0.056 µM, respectively.

On to `Cc1cccc2c1CC1(CCN(c3ncc(Sc4ccnc(N)c4Cl)nn3)CC1)[C@@H]2N` [Example 48, (S)-1′-(6-((2-amino-3-chloropyridin-4-yl)thio)-1,2,4-triazin-3-yl)-4-methyl-1,3-dihydrospiro[indene-2,4′-piperidin]-1-amine], for which the IC50 is 0.03 µM in assay [1] and 0.005 µM in assay [2].

Turning to `Cc1cccc2c1CC1(CCN(c3ncc(Sc4ccnc(N)c4Cl)nn3)CC1)[C@H]2N` [Example 49, (R)-1′-(6-((2-amino-3-chloropyridin-4-yl)thio)-1,2,4-triazin-3-yl)-4-methyl-1,3-dihydrospiro[indene-2,4′-piperidin]-1-amine], the IC50 came to 0.157 µM in assay [1] and 0.126 µM in assay [2].

On to `Cc1nccc(Sc2cnc(N3CCC4(CC3)Cc3ccccc3[C@H]4N)nn2)c1C` [Example 50, (S)-1′-(6-((2,3-dimethylpyridin-4-yl)thio)-1,2,4-triazin-3-yl)-1,3-dihydrospiro[indene-2,4′-piperidin]-1-amine], for which the IC50 was 0.044 µM in assay [1] and 0.006 µM in assay [2].

Consider `N[C@@H]1c2ccccc2CC12CCN(c1ncc(Sc3ccnc(C(F)(F)F)c3Cl)nn1)CC2` [Example 51, (S)-1′-(6-((3-chloro-2-(trifluoromethyl)pyridin-4-yl)thio)-1,2,4-triazin-3-yl)-1,3-dihydrospiro[indene-2,4′-piperidin]-1-amine], for which the IC50 in assay [1] stood at 0.093 µM; in assay [2], 0.078 µM.

Consider `Nc1nccc(Sc2cnc(N3CCC4(CC3)Cc3ccccc3[C@H]4N)nn2)c1Br` [Example 52, (S)-1′-(6-((2-amino-3-bromopyridin-4-yl)thio)-1,2,4-triazin-3-yl)-1,3-dihydrospiro[indene-2,4′-piperidin]-1-amine], for which the IC50 in assay [1] amounted to 0.027 µM; in assay [2] it was 0.002 µM.

For the origin of these results see patent US11634417B2 (Array BioPharma Inc., priority 2019, dated 2023).
